Laboratory results reported in US20220356174A1, “PYRIDIN-2-ONE COMPOUNDS USEFUL AS SMARCA2 ANTAGONISTS” (Epizyme, Inc., priority 2018, published 2022).
Like-named read-outs stand apart in the source and are kept apart here.

Columns and labels:
[1] = target: T1, FL-SMARCA2 (full-length human SMARCA2 isoform 1) (Homo sapiens, UniProt P51531); test: SMARCA2 ATPase activity assay (ADP-Glo, chicken mononucleosome substrate); format: biochemical; settings: ATPase assay, enzyme 5 nM, ATP 250 uM, chicken mononucleosome 10 nM, 30 min preincubation
T1 construct: FLAG tag (YKDDDDK) (C); made in house; host or cells: Sf21 insect cells (baculovirus, pFastBacI)

A549 cells = test: High-throughput proliferation (HTP) assay for A549 cells (CellTiter-Glo, 7 days); format: cell-based; settings: Homo sapiens, 168 h, read-out: A549 SMARCA2 IC50
Method in brief: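 Seven-day growth of A549 (62.5 cells/well, F12K with 10% HI-FBS, 37° C.) with compound, read by CellTiter-Glo ATP luminescence. Percent inhibition scaled between DMSO wells and 10 μM Doxorubicin wells, then fitted for EC50 and IC50.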

H358 cells = test: High-throughput proliferation (HTP) assay for H358 cells (CellTiter-Glo, 7 days); format: cell-based; settings: Homo sapiens, NCI-H358, 168 h, read-out: H358 SMARCA2 IC50
Method in brief: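 Cells were plated at 1,000 cells/well in RPMI 1640 + 10% HI-FBS + 1% pen/strep on pre-dispensed compound and incubated 7 days at 37 °C, 5% CO2. Viability was read as ATP luminescence with CellTiter-Glo after 30 min at RT. DMSO served as 0% and 10 µM doxorubicin as 100% inhibition for EC50/IC50.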

FL-SMARCA4 = FL-SMARCA4 (Homo sapiens, UniProt P51532); test: SMARCA4 ATPase activity assay (ADP-Glo, chicken mononucleosome substrate)
[2] = Table 3d.1, read-out: FL-SMARCA2 IC>50
[3] = FL-SMARCA4 IC>50, Table 3c.2, ATPase assay, enzyme 5 nM, ATP 250 uM, chicken mononucleosome 10 nM, 30 min preincubation

T1 sequence (P51531 with tags, fused parts or gaps): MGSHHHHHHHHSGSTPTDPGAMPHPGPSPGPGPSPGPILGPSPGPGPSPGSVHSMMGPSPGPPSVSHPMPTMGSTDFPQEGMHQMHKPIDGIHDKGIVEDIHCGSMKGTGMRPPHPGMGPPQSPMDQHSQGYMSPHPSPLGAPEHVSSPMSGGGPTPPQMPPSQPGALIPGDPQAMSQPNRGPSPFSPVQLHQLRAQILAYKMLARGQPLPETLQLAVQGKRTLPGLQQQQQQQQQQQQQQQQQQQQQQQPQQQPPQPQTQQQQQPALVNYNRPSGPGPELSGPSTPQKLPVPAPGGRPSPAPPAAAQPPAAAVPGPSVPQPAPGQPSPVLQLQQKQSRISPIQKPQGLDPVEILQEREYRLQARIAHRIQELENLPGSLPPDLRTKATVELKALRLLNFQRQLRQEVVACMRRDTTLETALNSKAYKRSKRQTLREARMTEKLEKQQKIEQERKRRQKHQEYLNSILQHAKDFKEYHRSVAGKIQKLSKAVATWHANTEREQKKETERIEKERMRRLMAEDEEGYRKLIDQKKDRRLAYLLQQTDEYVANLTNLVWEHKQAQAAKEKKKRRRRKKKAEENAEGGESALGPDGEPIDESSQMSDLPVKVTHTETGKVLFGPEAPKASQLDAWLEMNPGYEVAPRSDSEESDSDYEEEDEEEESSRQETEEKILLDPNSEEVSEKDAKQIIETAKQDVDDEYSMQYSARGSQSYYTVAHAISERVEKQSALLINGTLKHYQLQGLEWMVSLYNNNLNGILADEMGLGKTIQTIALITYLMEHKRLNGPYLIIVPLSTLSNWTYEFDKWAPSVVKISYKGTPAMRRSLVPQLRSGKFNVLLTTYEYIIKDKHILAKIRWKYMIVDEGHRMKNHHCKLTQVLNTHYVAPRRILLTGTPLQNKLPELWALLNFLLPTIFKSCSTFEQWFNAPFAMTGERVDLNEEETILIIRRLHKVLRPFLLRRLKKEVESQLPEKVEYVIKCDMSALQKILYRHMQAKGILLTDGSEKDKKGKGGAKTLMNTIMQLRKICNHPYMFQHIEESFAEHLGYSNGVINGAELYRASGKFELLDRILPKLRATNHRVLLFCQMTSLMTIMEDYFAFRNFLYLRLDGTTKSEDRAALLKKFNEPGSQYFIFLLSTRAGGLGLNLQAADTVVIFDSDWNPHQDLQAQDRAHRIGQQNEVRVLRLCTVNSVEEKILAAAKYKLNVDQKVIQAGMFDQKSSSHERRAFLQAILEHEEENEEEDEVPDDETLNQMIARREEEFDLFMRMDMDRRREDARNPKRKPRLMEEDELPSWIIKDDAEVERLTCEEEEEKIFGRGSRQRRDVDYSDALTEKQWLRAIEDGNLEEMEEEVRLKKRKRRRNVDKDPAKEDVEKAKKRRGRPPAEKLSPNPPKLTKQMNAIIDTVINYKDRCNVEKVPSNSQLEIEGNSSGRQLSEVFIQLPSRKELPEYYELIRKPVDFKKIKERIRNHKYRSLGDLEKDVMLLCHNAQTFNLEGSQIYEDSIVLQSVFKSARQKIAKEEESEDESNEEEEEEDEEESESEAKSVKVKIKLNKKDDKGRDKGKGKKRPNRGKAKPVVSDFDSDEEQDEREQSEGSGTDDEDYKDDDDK
FL-SMARCA4, sequence (P51532 whole entry): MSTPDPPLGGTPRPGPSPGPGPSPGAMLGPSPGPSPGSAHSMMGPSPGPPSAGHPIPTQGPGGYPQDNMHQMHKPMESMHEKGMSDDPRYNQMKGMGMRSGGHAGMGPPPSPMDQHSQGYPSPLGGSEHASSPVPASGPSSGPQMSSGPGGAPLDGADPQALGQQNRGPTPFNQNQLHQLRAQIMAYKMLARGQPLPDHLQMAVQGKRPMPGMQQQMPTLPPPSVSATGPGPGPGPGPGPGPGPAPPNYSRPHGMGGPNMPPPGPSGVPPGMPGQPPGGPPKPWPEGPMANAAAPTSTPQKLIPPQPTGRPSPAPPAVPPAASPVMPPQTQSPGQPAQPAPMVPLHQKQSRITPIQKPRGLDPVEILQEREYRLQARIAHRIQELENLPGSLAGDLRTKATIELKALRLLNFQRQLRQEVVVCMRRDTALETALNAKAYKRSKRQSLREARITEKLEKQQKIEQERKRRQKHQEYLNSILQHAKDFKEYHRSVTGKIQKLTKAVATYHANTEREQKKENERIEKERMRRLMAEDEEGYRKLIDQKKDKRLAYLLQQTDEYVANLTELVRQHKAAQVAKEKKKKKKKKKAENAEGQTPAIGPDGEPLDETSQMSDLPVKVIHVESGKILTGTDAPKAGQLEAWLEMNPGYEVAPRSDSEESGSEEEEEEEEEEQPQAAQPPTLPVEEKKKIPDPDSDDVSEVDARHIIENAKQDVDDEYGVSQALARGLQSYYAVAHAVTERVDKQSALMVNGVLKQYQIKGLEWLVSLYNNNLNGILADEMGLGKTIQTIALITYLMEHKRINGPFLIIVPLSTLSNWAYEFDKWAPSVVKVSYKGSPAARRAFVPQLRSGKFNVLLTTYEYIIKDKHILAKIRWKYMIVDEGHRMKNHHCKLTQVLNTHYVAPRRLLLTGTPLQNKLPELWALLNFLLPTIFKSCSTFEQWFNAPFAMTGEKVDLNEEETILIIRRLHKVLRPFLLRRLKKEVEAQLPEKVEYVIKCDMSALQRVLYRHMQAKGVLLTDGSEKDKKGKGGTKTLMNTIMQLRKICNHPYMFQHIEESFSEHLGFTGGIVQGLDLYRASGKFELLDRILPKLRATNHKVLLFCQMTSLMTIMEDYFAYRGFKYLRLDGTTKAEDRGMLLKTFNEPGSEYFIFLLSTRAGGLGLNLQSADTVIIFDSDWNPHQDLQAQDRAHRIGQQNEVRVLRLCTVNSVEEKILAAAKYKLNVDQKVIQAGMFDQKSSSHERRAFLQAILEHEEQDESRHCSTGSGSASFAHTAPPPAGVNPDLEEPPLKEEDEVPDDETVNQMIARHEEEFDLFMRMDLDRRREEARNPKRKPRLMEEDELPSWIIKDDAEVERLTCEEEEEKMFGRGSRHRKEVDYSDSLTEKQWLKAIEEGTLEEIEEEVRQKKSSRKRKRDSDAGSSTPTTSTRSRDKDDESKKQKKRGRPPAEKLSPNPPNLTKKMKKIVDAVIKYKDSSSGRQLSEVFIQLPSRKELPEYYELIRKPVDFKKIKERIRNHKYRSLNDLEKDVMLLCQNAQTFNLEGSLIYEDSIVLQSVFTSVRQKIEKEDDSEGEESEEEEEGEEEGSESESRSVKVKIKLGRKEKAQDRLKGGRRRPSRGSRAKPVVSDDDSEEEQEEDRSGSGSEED

Structure (SMILES): CNC(=O)c1ncc(C#Cc2cc(C(=O)Nc3cc(F)c(=O)n(CC(F)F)c3)sc2Cl)o1 [Compound 67d]
- IC50 [1, 2]: 0.0146 µM
- IC50 (A549 cells): 2.12 µM
- IC50 (H358 cells): > 10 µM
- IC50 (FL-SMARCA4; FL-SMARCA4 IC50): 0.0372 µM

Structure (SMILES): N#Cc1ccc(C#Cc2cc(C(=O)Nc3cc(F)c(=O)n(CC(F)F)c3)sc2Cl)cc1 [Compound 43c]
- IC50 ([1]; Table 3c.1): 0.13 µM
- IC50 (A549 cells): 2.94 µM
- IC50 (H358 cells): > 10 µM
- IC50 (FL-SMARCA4; [3]): 0.329 µM

Structure (SMILES): O=C(Nc1cc(F)c(=O)n(CC(F)F)c1)c1cc(C#C[C@H]2CCC[C@H](O)C2)c(Cl)s1 [Compound 129d]
- IC50 [1, 2]: 0.0584 µM
- IC50 (A549 cells): 2.17 µM
- IC50 (H358 cells): > 10 µM
- IC50 (FL-SMARCA4; FL-SMARCA4 IC50): 0.161 µM

Structure (SMILES): O=C1Cc2ncc(C#Cc3cc(C(=O)NC4=NC(CC(F)F)C(=O)C(F)=C4)sc3Cl)cc2N1 (centres unmarked) [Compound 58d]
- IC50 [1, 2]: 0.0619 µM
- IC50 (A549 cells): > 10 µM
- IC50 (H358 cells): > 10 µM
- IC50 (FL-SMARCA4; FL-SMARCA4 IC50): 0.102 µM

Structure (SMILES): Cc1nc2cc(C#Cc3cc(C(=O)Nc4cc(F)c(=O)n(CC(F)F)c4)sc3Cl)ccc2[nH]1 [Compound 141c]
- IC50 ([1]; Table 3c.1): 0.028 µM
- IC50 (A549 cells): 6.02 µM
- IC50 (H358 cells): > 10 µM
- IC50 (FL-SMARCA4; [3]): 0.0598 µM

Structure (SMILES): O=C(Nc1cc(F)c(=O)n(CC(F)F)c1)c1cc(C#Cc2ccc(Cl)cc2)c(Cl)s1 [Compound 35c]
- IC50 ([1]; Table 3c.1): 0.698 µM
- IC50 (A549 cells): 3.7 µM
- IC50 (H358 cells): 8.76 µM
- IC50 (FL-SMARCA4; [3]): 0.905 µM

Structure (SMILES): Nc1cc(C#Cc2cc(C(=O)Nc3cc(F)c(=O)n(CC(F)F)c3)sc2Cl)ccn1 [Compound 124c]
- IC50 ([1]; Table 3c.1): 0.0109 µM
- IC50 (A549 cells): 1.07 µM
- IC50 (H358 cells): 7.23 µM
- IC50 (FL-SMARCA4; [3]): 0.0177 µM

Structure (SMILES): CC(N)CC#Cc1cc(C(=O)Nc2cc(F)c(=O)n(CC(F)F)c2)sc1Cl (centres unmarked) [Compound 139d]
- IC50 [1, 2]: 3.1 µM
- IC50 (A549 cells): > 10 µM
- IC50 (H358 cells): > 10 µM
- IC50 (FL-SMARCA4; FL-SMARCA4 IC50): 6.7 µM

Structure (SMILES): CC(F)(F)c1sc(C(=O)Nc2cc(F)c(=O)n(CC(F)F)c2)cc1C#N [Compound 83d]
- IC50 [1, 2]: 0.465 µM
- IC50 (A549 cells): > 10 µM
- IC50 (H358 cells): > 10 µM
- IC50 (FL-SMARCA4; FL-SMARCA4 IC50): 2.39 µM

Structure (SMILES): CNC(=O)c1cc(C#Cc2cc(C(=O)Nc3cc(F)c(=O)n(CC(F)F)c3)sc2Cl)nn1C [Compound 154c]
- IC50 ([1]; Table 3c.1): 0.0711 µM
- IC50 (A549 cells): > 10 µM
- IC50 (H358 cells): > 10 µM
- IC50 (FL-SMARCA4; [3]): 0.147 µM

Structure (SMILES): CN1CCCC(C#Cc2cc(C(=O)Nc3cc(F)c(=O)n(CC(F)F)c3)sc2Cl)C1 (centres unmarked) [Compound 140d]
- IC50 [1, 2]: 0.772 µM
- IC50 (A549 cells): 7.18 µM
- IC50 (H358 cells): > 10 µM
- IC50 (FL-SMARCA4; FL-SMARCA4 IC50): 1.77 µM

Structure (SMILES): CC#Cc1cc(C(=O)Nc2cc(F)c(=O)n(CC(F)F)c2)sc1Cl [Compound 85c]
- IC50 ([1]; Table 3c.1): 0.0811 µM
- IC50 (A549 cells): 2.37 µM
- IC50 (H358 cells): > 10 µM
- IC50 (FL-SMARCA4; [3]): 0.233 µM

Structure (SMILES): O=C(Nc1cc(F)c(=O)n(CC(F)F)c1)c1cc(C#Cc2ccccn2)c(Cl)s1 [Compound 81c]
- IC50 ([1]; Table 3c.1): 0.0798 µM
- IC50 (A549 cells): 2.01 µM
- IC50 (H358 cells): > 10 µM
- IC50 (FL-SMARCA4; [3]): 0.198 µM

Structure (SMILES): O=C(Nc1cc(F)c(=O)n(CC(F)F)c1)c1cc(C#CC2CCN(CC(F)(F)F)C2)c(Cl)s1 (centres unmarked) [Compound 110d]
- IC50 [1, 2]: 1.47 µM
- IC50 (A549 cells): > 10 µM
- IC50 (H358 cells): > 10 µM
- IC50 (FL-SMARCA4; FL-SMARCA4 IC50): 4.61 µM

Structure (SMILES): O=C(Nc1cc(F)c(=O)n(CC(F)F)c1)c1cc(C#Cc2nncs2)c(Cl)s1 [Compound 130d]
- IC50 [1, 2]: 0.0309 µM
- IC50 (A549 cells): 3.37 µM
- IC50 (H358 cells): 6.75 µM
- IC50 (FL-SMARCA4; FL-SMARCA4 IC50): 0.132 µM

Structure (SMILES): O=C(Nc1cc(F)c(=O)n(CC(F)F)c1)c1cc(C#Cc2ccc3ccnn3c2)c(Cl)s1 [Compound 122d]
- IC50 [1, 2]: 0.253 µM
- IC50 (A549 cells): 8.44 µM
- IC50 (H358 cells): > 10 µM
- IC50 (FL-SMARCA4; FL-SMARCA4 IC50): 0.835 µM

Structure (SMILES): O=C1C[C@@H](C#Cc2cc(C(=O)Nc3cc(F)c(=O)n(CC(F)F)c3)sc2Cl)CCN1 [Compound 62d]
- IC50 [1, 2]: 0.0225 µM
- IC50 (A549 cells): > 10 µM
- IC50 (H358 cells): > 10 µM
- IC50 (FL-SMARCA4; FL-SMARCA4 IC50): 0.0571 µM

Structure (SMILES): CC(C)(F)c1sc(C(=O)Nc2cc(F)c(=O)n(CC(F)F)c2)cc1C#N [Compound 84d]
- IC50 [1, 2]: 8.58 µM
- IC50 (A549 cells): > 10 µM
- IC50 (H358 cells): > 10 µM
- IC50 (FL-SMARCA4; FL-SMARCA4 IC50): > 50 µM

Structure (SMILES): O=C(Nc1cc(F)c(=O)n(CC(F)F)c1)c1cc(C#Cc2cn[nH]c2)c(Cl)s1 [Compound 83c]
- IC50 ([1]; Table 3c.1): 0.0194 µM
- IC50 (A549 cells): 3.47 µM
- IC50 (H358 cells): > 10 µM
- IC50 (FL-SMARCA4; [3]): 0.0629 µM

Structure (SMILES): N#Cc1cc(C(=O)Nc2cc(C#N)c(=O)n(CC(F)F)c2)sc1C(F)(F)F [Compound 56d]
- IC50 [1, 2]: 0.0984 µM
- IC50 (A549 cells): 6.25 µM
- IC50 (H358 cells): > 10 µM
- IC50 (FL-SMARCA4; FL-SMARCA4 IC50): 0.535 µM
